Common to all, as to test: inhibition of tumour cell growth, NCI panel, 48 h
Test [1] concerns CCRF-CEM leukemia.
For test [2], the system named is DLD-1 colon.
Test [3] has as its system HCT-15 colon.
Test [4] concerns HL-60(TB) leukemia.
Test [5] concerns HT29 colon.
In test [6] the test system is MALME-3M melanoma.
Test [7] has as its system MOLT-4 leukemia.
In test [8] the test system is NCI-H226 lung.
Test [9] relates to SK-OV-3 ovarian.
Test [10] relates to SNB-19 CNS.
Test [11] has as its system UO-31 renal.
In test [12] the test system is ACHN renal.
In test [13] the test system is BT-549 breast.
The subject of test [14] is MDA-MB-435.

Each structure is given as a SMILES string. Several values for one entry are separate records, joined by “and”; a condition that tells them apart may be missing. Equal entries are not always repeated.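 Where inhibition never reached the appropriate level, the endpoint shown equals the highest concentration tested. Otherwise, values were interpolated linearly from a five-concentration, 48-hour dose response in 96-well plates. GI50: concentration for 50% inhibition of growth. Definition used: TGI = concentration required for complete inhibition of growth.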

Turning to `CC(=O)Oc1c(OC(C)=O)c(-c2ccc(O)c(O)c2)c(O)c(O)c1-c1ccc(O)cc1`, the GI50 in [1] was 24.5 µM; in test [3] it was 76.3 µM; in test [4], 19 µM; in test [6], 51.3 µM; in [7], 53.6 µM; in test [8], 79.7 µM. Also, the TGI in test [1] was 67.8 µM and > 100 µM; in [2] it was over 100 µM; in test [3], over 100 µM; in test [4], 52.6 µM and > 100 µM; in test [5], over 100 µM; in [6], over 100 µM. In addition, the TGI in test [7], in test [8], in [9], in [10] and in test [11] was over 100 µM throughout.

In the case of `Cn1c(=O)n(CC(Br)CBr)c(=O)n(CC(Br)CBr)c1=O` (stereo unspecified), the TGI was over 100 µM in test [12]; over 100 µM in [13]; 66.9 µM in test [1]; over 100 µM in [3]; 58 µM in [4]; 54.6 µM in [5]. For the same molecule, the TGI was over 100 µM in test [6]; over 100 µM in test [14]; 87.1 µM in test [7]; 58.9 µM in [8]; over 100 µM in test [9]; over 100 µM in test [10]. For the same molecule, in [11], the TGI came out at 97.6 µM.

In the case of `O=C1OC(CN2CCN(c3ccccc3)CC2)CN1C(=S)Nc1ccccc1` (stereo unspecified), the TGI in test [12], in [13], in [1], in [3], in [4] and in test [5] was over 100 µM each time. Besides, the TGI in [6], in [14], in test [7], in test [8], in test [9] and in test [10] was over 100 µM in each case. In test [11], the TGI is over 100 µM.

As for `Cc1cn(C2CC(N=[N+]=[N-])C(CO[Si](C)(C)C(C)(C)C)O2)c(=O)[nH]c1=O` (stereo unspecified), the TGI in test [12] was 48 µM; in test [13], 23.7 µM; in test [1] it was 60.9 µM; in test [3], 37.9 µM; in test [4] it was 72.4 µM; in test [5] it was 32.4 µM. In addition, the TGI in test [6] was 28.1 µM; in test [14], 38.2 µM; in [7], over 100 µM; in [8], 29.6 µM; in test [9], 37.1 µM; in test [10], 38.3 µM. In [11], this molecule gave a TGI of 30.7 µM.

For `CC(Cc1ccc(O)c(O)c1)C(C)Cc1ccc(O)c(O)c1` (stereo unspecified), the TGI in [12] was 33.5 µM; in test [13], 26.8 µM; in test [1], 19.3 µM; in [3], over 60.8 µM; in test [4], 10.3 µM; in test [5], 51.5 µM. The TGI in test [6] is 29.5 µM; in test [14], 28.3 µM; in [7], over 62.5 µM; in test [8], 59.8 µM; in [9] it was 84 µM; in test [10] it was 50.9 µM. The molecule also returned a TGI in test [11] of 23.1 µM.

For `CNC(=O)CN1CC(=O)N(C)C(=O)C1`, the TGI in test [1], in [2], in test [3], in test [4], in test [6] and in [7] was over 100 µM throughout. Also, the TGI in test [8], in test [9], in test [10] and in test [11] was over 100 µM throughout.

As for `Fc1ccc(C(OCCN2CCC3CCC(C2)N3Cc2cc3ccccc3[nH]2)c2ccc(F)cc2)cc1` (stereo unspecified), the TGI in [12] is 4.07 µM; in test [13] it was 5.08 µM; in test [1] it was 4.69 µM; in test [3] it was 2.38 µM; in test [4], 3.69 µM; in [5], 2.49 µM. Moreover, the TGI in test [6] was determined as 2.96 µM; in test [14], 3.55 µM; in test [7], 4.03 µM; in test [8], 3.41 µM; in [9] it was 5.69 µM; in [10], 7.55 µM. Besides, the TGI in [11] turned out to be 3.42 µM.

Take `CCOC(=O)c1nc2cc(C(F)(F)F)ccc2nc1Nc1ccc(Cl)c(Cl)c1`: the TGI in test [12], in [13], in [1], in test [3], in [4] and in test [5] was over 100 µM in each case. Also, the TGI in test [6], in test [14], in [7], in test [8], in [9] and in test [10] was over 100 µM throughout. The molecule further registered a TGI in test [11] of over 100 µM.

For `Nc1cccc(OCc2nc(N)nc(N)c2-c2ccc(Cl)cc2)c1`, the TGI in test [12] is over 100 µM; in test [13] it was over 100 µM; in test [1], 29.2 µM; in test [3] it was over 100 µM; in [4], 77.3 µM; in test [5] it was over 100 µM. Further, the TGI in test [6] was over 100 µM; in test [14] it was over 100 µM; in test [7], over 100 µM; in [8], 79.5 µM; in test [9], over 100 µM; in test [10], over 100 µM. The TGI in test [11] is over 100 µM.

Take `C=CCn1c(=O)c(C)cn(/C(=C/C(=O)OCC)C(=O)OCC)c1=O`: the TGI was determined as 21.2 µM in test [12]; 30.2 µM in test [13]; 5.42 µM in [1]; 13.7 µM in [3]; 5.48 µM in test [4]; 25.8 µM in [5]. Besides, the TGI is 29.2 µM in test [6]; 28.2 µM in [14]; 21.2 µM in test [7]; over 54.7 µM in test [8]; over 100 µM in test [9]; over 86.1 µM in test [10]. For the same molecule, the TGI in [11] came to 29.1 µM.

The values above are taken from PubChem BioAssay (NCI).
